Values joined by “and” are separate entries in the source; they are usually repeats but may differ in a detail not shown here. Equal values may be shown once. “Also recorded” adds a separate entry of the source. Read-outs that look alike come from different tables or passages of the source.
Key:
DIO mice [1] = test: Chronic treatment of DIO mice (body weight, food intake, leptin, DEXA); assay type: in vivo; conditions: for body weight after treatment / decrease in body weight: 3 weeks; for body weight after treatment / decrease in body weight / body weight before treatment / daily food intake under treatment: ACY775 10, ACY738 50 mg/kg/day i.p.; for fat mass (DEXA) / fat percentage (DEXA) / lean mass (DEXA) / circulating/serum leptin levels: after 3 weeks; for circulating/serum leptin levels: ACY775 10, ACY738 50, ricolinostat 50 mg/kg i.p.; for food intake and total body fat mass: high fat diet induced mice, summary
Description: DIO mice were treated with ACY775 (10 mg/kg/day, i.p.) for 3 weeks. Daily body weight (g) of DIO mice treated with vehicle (n=17) or ACY775 (n=17) during 3 weeks of treatment was determined. Daily food intake (g) during 3 weeks of vehicle or ACY775 treatment was assessed. 24 hours' food intake per mouse during the first week of vehicle or ACY775 treatment was determined. Serum leptin (ng/ml) levels after 3 weeks of vehicle (n=24) or ACY775 (n=24) treatment was assessed. Lean mass (g), fat mass (g) and fat percentage (%) after 3 weeks of vehicle (n=17) or ACY775 (n=17) treatment measured by Dual-energy X-ray absorptiometry (DEXA) scan. DEXA scans were performed in two different cohorts. Glucose tolerance test (GTT) after 1 week of vehicle (n=33) or ACY775 (n=26) treated DIO mice was assessed. Area of curve (AOC) analysis for GTT was performed. Blood glucose (mg/dl) levels after 1 week of vehicle (n=17) or ACY775 (n=16) were assessed in treated DIO mice. Insulin tolerance test (ITT) was performed after 2 weeks of vehicle (n=31) or ACY775 (n=21) treatment of DIO mice. Serum insulin (ng/ml) levels were measured after 3 weeks of vehicle (n=22) or ACY775 (n=21) in treated DIO mice. A homeostatic model assessment of insulin resistance (HOMA-IR) was analyzed after 3 weeks of vehicle (n=14) or ACY775 (n=13) treated DIO mice.
(§1) Food intake was analyzed hourly until 3:00 am. […] DEXA scans were performed in two different cohorts.
DIO mice then were treated with ricolinostat (50 mg/kg, i.p.) for 3 weeks. Daily body weight (g), daily food intake (g), serum leptin (ng/ml) levels after 3 weeks of vehicle (n=8) or ricolinostat (n=8) treatment, lean mass (g); fat mass and fat percentage (%) after 3 weeks of vehicle (n=16) or ricolinostat (n=17) treatment measured by DEXA scan were determined.
Studies were conducted as described above with reference to ACY775.
DIO mice then were treated with bavarostat (10 mg/kg, i.p.) for 3 weeks and daily body weight (g) of DIO mice treated with Veh (n=9) or bavarostat (n=9) measured during the three weeks of treatment period. Daily food intake (g) during 3 weeks of Veh or bavarostat treatment was also measured.
ACY1083 was administered to DIO mice as described in Example 3.

db/db mice = test: 3-week treatment of db/db mice; assay type: in vivo; conditions: for glucose tolerance (GTT): 1 week; for ITT: 2 weeks; for body weight heavier than initial body weight: end of 3 weeks, ACY775 10, ACY738 50 mg/kg i.p.
Description: Daily food intake (g), Serum leptin (ng/ml), lean mass (g), fat mass (g) and fat percentage (%) were measured after 3 weeks of treatment measured by DEXA scan. GTT was determined after 1 week of treatment. AOC analysis for GTT was performed and Blood glucose (mg/dl) levels were measured after 1 week of treatment. Blood glucose (mg/dl) levels and Serum insulin (ng/ml) levels were measured after 3 weeks of treatment. ITT was assessed after 2 weeks of treatment. H&E staining of the liver sections was conducted after 3 weeks of treatment.

DIO mice [2] = test: Conditioned place preference (CPP) assay in DIO mice; assay type: in vivo; conditions: fed and fasting conditions, vs vehicle
Description: DIO mice were treated with vehicle or ACY775 (10 mg/kg, i.p., once a day) for 3 days. On the fourth day, 1 h after the beginning of the light cycle, the mice were administered vehicle or ACY775 (10 mg/kg, i.p.) and the conditioned place preference (CPP) assay under the ad libitum feeding condition was utilized. The CPP assay was performed 6 h later under the ad libitum feeding condition (n=10 mice for both the Vehicle- and ACY775-treated groups). CPP assay under a 20-h fasting condition was also performed. DIG mice were treated with vehicle or ACY775 (10 mg/kg, i.p.) once a day and fasted for 15 h after the third injection. On the fourth day, 1 h after the beginning of the light cycle, the mice were administered vehicle or ACY775 (10 mg/kg body weight, i.p.) and the CPP assay was performed 5 h after this injection under the fasting condition (n=10 mice for both the Vehicle- and ACY775-treated groups).
Measurements were made of the total distance that the mice traveled during the CPP test, the average velocity of movement during the assay, the total time the mice spent in the dark chamber during the test; the frequency with which the mice traveled to the dark chamber during the test; the total time the mice spent in the food-paired white chamber; the frequency with which the mice traveled to the food paired white chamber; the total time the mice spent in the food-containing zone within the food-paired side chamber; and the frequency with which the mice traveled to the food-containing zone within the food-paired side chamber during the test.

DIO mice [3] = test: Single dose food intake in 24 h-fasted DIO mice; assay type: in vivo; conditions: ACY775 10, ACY738 50 mg/kg i.p.
Description: as §1

HDAC6 KO mice = test: 3-week treatment of DIO WT versus HDAC6 KO mice; assay type: in vivo; conditions: for body weight, HDAC6 KO vs WT DIO mice: 3 weeks i.p., ACY775 10, ACY738 50, Tubastatin A 25 mg/kg/day; for fat mass and fat %, HDAC6 KO vs WT / lean mass, HDAC6 KO vs WT: DEXA; for blood glucose, serum insulin and leptin levels, HDAC6 KO vs WT / food intake, HDAC6 KO vs WT DIO mice / glucose tolerance and insulin sensitivity (GTT, ITT), HDAC6 KO vs WT: mouse, in vivo
WT lean mice = test: 3-week treatment of WT lean mice; assay type: in vivo; conditions: for lean mass, total fat mass, fat percentage / body weight: 3 weeks; for body weight: ACY775 10, ACY738 50 mg/kg i.p.; for liver morphology: end of treatment
Description: Daily food intake (g) during 3 weeks of treatment. Serum leptin (ng/ml) levels were measured after 3 weeks of treatment. Lean mass (g); fat mass (g) and fat percentage (%) after 3 weeks of treatment were measured by DEXA scan. GTT was measured after 1 week of treatment. AOC analysis for GTT was performed. Blood glucose (mg/dl) level was measured after 1 week of treatment. ITT was measured after 2 weeks of treatment. Serum insulin (ng/ml) levels were measured after 3 weeks of treatment.

[4] = cited from earlier work; for brain/plasma ratio: in vivo

SMILES | average food intake during the first week vs control (DIO mice [1]; DIO mice) | daily food intake before treatment (DIO mice [1]; DIO mice) | body weight after treatment (DIO mice [1]; DIO mice) | decrease in body weight (DIO mice [1]; DIO mice) | fat mass (DEXA) (DIO mice [1]; DIO mice) | fat percentage (DEXA) (DIO mice [1]; DIO mice) | lean mass (DEXA) (DIO mice [1]; DIO mice) | circulating/serum leptin levels (DIO mice [1]; DIO mice) | body weight before treatment (DIO mice [1]; DIO mice) | daily food intake under treatment (DIO mice [1]; DIO mice) | food intake and total body fat mass (DIO mice [1]) | hepatic steatosis (db/db mice) | plasma insulin levels (db/db mice) | glucose tolerance (GTT) (db/db mice) | ITT (db/db mice) | body weight heavier than initial body weight (db/db mice) | CPP: cumulative duration in dark side chambers (DIO mice [2]) | CPP: time and frequency in food-containing white side chambers (DIO mice [2]) | CPP: time and frequency in the food zone (DIO mice [2]) | food intake after a single dose (DIO mice [3]) | also measured
O=C(NO)c1cnc(NC2(c3cccc(F)c3)CCCCC2)nc1 [ACY775, 2-[[1-(3-fluorophenyl)cyclohexyl]amino]-N-hydroxy-5-pyrimidinecarboxamide] | highly significant reduction | 2.54 ± 0.10 g | 33.53 ± 1.19 g | 29.58%±1.79% | significantly lower | significantly lower | did not alter the lean mass | significantly downregulated | 48.25 ± 0.87 g | 0.85 ± 0.06 g | significant reduction of food intake and total body fat mass | did not improve hepatic steatosis | did not show any significant alterations | no difference in glucose tolerance | no significant difference in blood glucose levels | 3.82%±0.99% | no significant differences in cumulative duration | significantly shorter time and had lower frequency of appearance in the food-containing white side chambers | significantly shorter time and displayed lower frequency of appearance in the food zone | significantly reduced/blocked the food intake | fasting blood glucose after the first week (db/db mice): lower in ACY775-treated mice than vehicle-treated mice; food intake (db/db mice): transitionally reduced by ACY775 treatment during the first 2 days; blood glucose lowering at the end of treatment period (db/db mice; 3 weeks): completely diminished; CPP: appearance frequency in dark side chambers (DIO mice [2]): similar; body weight, HDAC6 KO vs WT DIO mice (HDAC6 KO mice): highly significant decrease in the bodyweight of the WT DIO mice when compared to HDAC6 KO DIG mice; fat mass and fat %, HDAC6 KO vs WT (HDAC6 KO mice): significantly lower in the wt group; lean mass, HDAC6 KO vs WT (HDAC6 KO mice): not different; blood glucose, serum insulin and leptin levels, HDAC6 KO vs WT (HDAC6 KO mice): significantly higher in the ACY775-treated HDAC6 KO group; food intake, HDAC6 KO vs WT DIO mice (HDAC6 KO mice): blocked in the HDAC6 KO mice; glucose tolerance and insulin sensitivity (GTT, ITT), HDAC6 KO vs WT (HDAC6 KO mice): could not increase glucose tolerance and insulin sensitivity in the HDAC6 KO mice; daily food intake (WT lean mice): similar; insulin sensitivity (ITT) and circulating insulin levels (WT lean mice): no significant difference in insulin sensitivity and circulating insulin levels; lean mass, total fat mass, fat percentage (WT lean mice): did not detect any alterations; body weight (WT lean mice): neither ACY775 nor ACY738 affected the body weight; liver morphology (WT lean mice): similar; brain/plasma ratio [4]: 1.26
O=C(CCCCCCNC(=O)c1cnc(N(c2ccccc2)c2ccccc2)nc1)NO [Ricolinostat] |  |  |  |  |  |  |  |  |  |  |  |  |  |  |  |  |  |  |  |  | body weight effect of chronic treatment (DIO mice [1]; DIO mice, 3 weeks i.p., bavarostat 10, citarinostat 25, ricolinostat 50 mg/kg): minimal decrease in bodyweight for the first couple of days without creating any meaningful or significant decreases; also recorded: does not reduce body weight; food intake during chronic treatment (DIO mice [1]; DIO mice, 3 weeks i.p., bavarostat 10, ricolinostat 50 mg/kg): reduced transitionally during the first 2-3 days of treatment but then rebounded; brain/plasma ratio [4]: 0.01 and < 0.01; brain/plasma ratio ([4]; listed as ricolinostat): 0.01; brain penetrance / BBB permeability ([4]; in words): poor BBB permeability
O=C(NO)c1cnc(NC2(c3ccccc3)CC2)nc1 [ACY738] | severely reduced | 2.35 ± 0.10 g | 37.74 ± 1 g | 20.21%±1.32% | significantly decreased | significantly decreased | no change in the lean body mass | significantly decreased | 46.43 ± 0.74 g | 1.32 ± 0.05 g | significant reduction of food intake and total body fat mass | did not improve hepatic steatosis | did not show any significant alterations | no difference in glucose tolerance | no significant difference in blood glucose levels | 2.53%±0.97% | no significant differences in cumulative duration | spent similar time and frequency of appearance | significantly shorter time and displayed lower frequency of appearance in the food zone | significantly reduced/blocked the food intake | body weight, HDAC6 KO vs WT DIO mice (HDAC6 KO mice): slight decrease in the HDAC6KO mice; fat mass and fat %, HDAC6 KO vs WT (HDAC6 KO mice): significantly lower in the wt group; lean mass, HDAC6 KO vs WT (HDAC6 KO mice): not different; reduction of bodyweight of the wt mice (HDAC6 KO mice; DIO wt mice, ACY738 50 mg/kg i.p.): around 20%; blood glucose, serum insulin and leptin levels, HDAC6 KO vs WT (HDAC6 KO mice): significantly higher in the ACY738-treated HDAC6 KO group; food intake, HDAC6 KO vs WT DIO mice (HDAC6 KO mice): significantly higher in the HDAC6 KO group; glucose tolerance and insulin sensitivity (GTT, ITT), HDAC6 KO vs WT (HDAC6 KO mice): did not improve glucose tolerance and increase insulin sensitivity in the HDAC6 KO mice; daily food intake (WT lean mice): similar; insulin sensitivity (ITT) and circulating insulin levels (WT lean mice): no significant difference in insulin sensitivity and circulating insulin levels; lean mass, total fat mass, fat percentage (WT lean mice): did not detect any alterations; body weight (WT lean mice): neither ACY775 nor ACY738 affected the body weight; liver morphology (WT lean mice): similar
